# Measurements as given in US20240309014A1, “MACROCYCLIC COMPOUNDS AND USES THEREOF” (President and Fellows of Harvard College, priority 2017, published 2024).
# Key:
# [1] = tested on: OSC-19 subcutaneous xenograft; assay: Antitumor activity against OSC-19 subcutaneous xenograft as monotherapy; format: in vivo, nude mice; details: Q7Dx2
# Method: A human squamous cell carcinoma of the head and neck (SCCHN) cell line OSC-19, which had been cultured in an DMEM/Ham's F-12 (1:1) medium containing 10% FBS, and penicillin and streptomycin, was adjusted to a concentration of 1×10^8 cells/ml with PBS to prepare a cell suspension, and the suspension was mixed with Matrigel™ (BD Bioscience, #366237) in a ratio of 1:1 to prepare a cell suspension in a concentration of 5×10^7 cell/mL. The cell suspension was inoculated in a volume of 100 μL into a subcutaneous part of a right flank of nude mice, 5 weeks of ages (CAnN.Cg-Foxnlnu/CrlCrlj, female, Charles River Laboratories Japan, Inc.). Six days after cell inoculation, the shortest diameter and the longest diameter of a tumor in each mouse were measured by using an electronic digital caliper (Digimatic™ caliper, Mitutoyo Corporation), so as to calculate the volume of the tumor in accordance with the following calculation formulae: […]
# On the basis of the volumes of tumors obtained on the first day of administration, the mice were grouped such that averages of the tumor volumes were substantially equal among the groups. The experiment was conducted on groups each consisting of 6 mice. Test compound was dissolved in saline and intravenously administered at doses from 0.06 mg/kg to 0.18 mg/kg once a week for 2 weeks (Q7Dx2 schedule).
# [2] = tested on: microtubule dynamics in U2OS-EB3-AG osteosarcoma cell line; assay: Cell-based microtubule dynamics assay; details: 0.5 nM, around 60 minutes after addition
# Method: A cell-based microtubule (MT) dynamics assay was conducted with the U2OS-EB3-AG osteosarcoma cell line, in which the fusion protein of EB3 (a microtubule plus end binding protein) and Azami-Green (EB3-AG) was stably expressed. U2OS-EB3-AG cells were culture in RPMI-1640 medium containing 10% FBS, and penicillin-streptomycin, at 37° C. in a humidified 5% C02 atmosphere. The MT dynamics in the live cells can be visualized as the movement of the comet-like structure of EB3-AG. U2OS-EB3-AG cells plated on glass-base culture plates (EZVIEW plate, AGC Techno Glass, Japan) were treated with Compound (1) at the indicated concentration and the microtubule dynamics were monitored by time-lapse imaging using fluorescent microscope with 60-fold magnification oil- immersed objective lens (BZ-X710, KEYENCE, Japan). Higher magnification views of the boxed areas were shown in inlets. When treated with Compound (1) at 0.5 nM (IC50 value for antiproliferative activity in U20S-EB3-AG cells), the comet-like structures became hard to observe at around 60 minutes after the addition of the compound.
# [3] = tested on: tubulin protein purified from porcine brain; assay: Cell-free tubulin polymerization assay; format: biochemical; details: final concentrations 0.625-10 μmol/L
# Method: Tubulin Polymerization Assay kit was purchased from Cytoskeleton, Inc. (Cat.#BKO11P). The kit contained 1 bottle of lyophilized tubulin protein purified from porcine brain, 3 tubes of lyophilized GTP, 2 bottles of lyophilized assay buffer, and 1 bottle of tubulin glycerol buffer. Assay buffer was prepared by dissolving the contents in 10 mL of deionized and sterilized water. This solution contained 80 mmol/L piperazine-N,N′-bis[2-ethanesulfonic acid] sesquisodium salt, 2.0 mmol/L magnesium chloride, 0.5 mmol/L ethylene glycol-bis(2-amino-ethyl ether) N,N,N′,N-tetra-acetic acid, pH 6.9, and 10 μmol/L fluorescent reporter.
# The buffer was stored at −70° C. until use. […]
# In the tubulin polymerization assay, reaction mixture was prepared by mixing 820 µL of assay buffer, 17.6 μL of GTP stock solution, and 600 μL of tubulin glycerol buffer. […] Fluorescence emission at 460 nm (excitation wavelength at 360 nm) was measured every 2 minutes for 90 minutes using the SpectraMax® M5e microplate reader (Molecular Devices). Tubulin polymerization was followed by fluorescence enhancement due to the incorporation of a fluorescence reporter into microtubules as polymerization occurred. […]
# [4] = tested on: human duodenal cell line HuTu 80 xenograft; assay: HuTu 80 xenograft model as monotherapy (FIG. 23); format: in vivo, nude mice
# Method: A human duodenal cell line HuTu 80, which had been cultured in a EMEM containing 10% FBS, and penicillin-streptomycin, was adjusted to a concentration of 3×10^7 cells/mL in PBS to prepare a cell suspension. The cell suspension was inoculated in a volume of 100 μL into a subcutaneous part of a right flank of nude mice, 7 weeks of ages (CAnN.Cg-Foxnlnu/CrlCrlj, female, Charles River Laboratories Japan Inc.). Seven days after cell inoculation (Day 1), the shortest diameter and the longest diameter of a tumor in each mouse were measured by using an electronic digital caliper (Digimatic™ caliper, Mitutoyo Corporation), so as to calculate the volume of the tumor in accordance with the following calculation formulae: […]
# On the basis of the volumes of tumors obtained on Day 1, the mice were grouped such that averages of the tumor volumes were substantially equal among the groups. The experiment was conducted on groups each consisting of six mice. Compound (1) was dissolved in DMSO and a solution was stored in the freezer before use. Immediately before the administration, the stock solution was diluted with saline. The test compound in saline was intravenously once-weekly administered at 45, 90, or 180 μg/kg for 2 weeks (on Day 1 and Day 8).
smiles,measurement,setting,value
C=C1C[C@@H]2CC[C@@]34C[C@H]5O[C@H]6[C@@H](O3)[C@H]3O[C@H](CC[C@@H]3O[C@H]6C5O4)CC(=O)O[C@@H]3[C@@H](C)[C@@H]4O[C@@H]5C[C@]6(C[C@@H]7O[C@]8(C[C@H](C)[C@@H]9O[C@H](CN)[C@H](O)C[C@@H]9O8)C[C@H](C)[C@@H]7O6)O[C@@H]5C[C@@H]4O[C@H]3C[C@H]3O[C@@H](CC[C@@H]1O2)C[C@@H](C)C3=C (stereo in doubt) [Compound (1)],Tumor Regression (%),[1]; 0.06 mg/kg i.v.,59%
same,Tumor Regression (%),[1]; 0.18 mg/kg i.v.,90%
same,effect on microtubule dynamics (EB3-AG comet-like structures),[2],suppress the MT dynamics
same,effect on tubulin polymerization,[3],inhibited tubulin polymerization in a concentration-dependent manner
same,Tumor Regression (%),[4]; 0.18 mg/kg i.v. Day 1 and Day 8,99%
same,antitumor effect,[4]; 180 μg/kg i.v. Day 1 and Day 8,tumor regression
same,antitumor effect,[4]; 45 and 90 μg/kg i.v. Day 1 and Day 8,tumor growth delay
